The target in one assay is KDR (Homo sapiens, UniProt P35968). Description: KDR cellular assay (KDR receptor phosphorylation ELISA). The assay is classed as cell-based. Also noted: expressed in transfected cells; host or cells: 3T3 (embryonic mouse) cells. Particulars: KDR transfected 3T3 (embryonic mouse) cells, VEGF stimulated; read-out: IC50 inhibition of KDR phosphorylation. The procedure, abridged:
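Phospho-KDR measured by capture ELISA (anti-KDR coat, biotinylated detection, streptavidin-HRP, 450 nm) in lysates of KDR-expressing 3T3 mouse fibroblasts. Cells saw compound 20 min at 37° C before 10 min VEGF challenge (100 ng/ml solution); IC50 from non-linear regression of half-log dose series.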

The next assay has as its target T1, Aurora B (Homo sapiens, UniProt Q96GD4).
T1 construct: Active Aurora B enzyme (recombinant residues 1-344)
The assay is described as follows: Aurora B enzyme inhibition (time-resolved fluorescence, histone H3 peptide). The assay is classed as biochemical. Particulars: 1 mM ATP. The gist of the method:
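IC50s came from an exponential fit of inhibition against inhibitor concentration, with phosphorylation read as the 665/615 nm time-resolved fluorescence ratio after EDTA stop using Eu-anti-phospho-H3 and SA-APC. The 1 h reaction used Aurora B 1-344 plus GST-INCENP, biotin-histone H3 1-21 peptide and 1 mM ATP in pH 7.4 HEPES buffer.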

Another assay addresses T2, Aurora A (Homo sapiens, UniProt O14965).
T2 sequence (O14965 1-403): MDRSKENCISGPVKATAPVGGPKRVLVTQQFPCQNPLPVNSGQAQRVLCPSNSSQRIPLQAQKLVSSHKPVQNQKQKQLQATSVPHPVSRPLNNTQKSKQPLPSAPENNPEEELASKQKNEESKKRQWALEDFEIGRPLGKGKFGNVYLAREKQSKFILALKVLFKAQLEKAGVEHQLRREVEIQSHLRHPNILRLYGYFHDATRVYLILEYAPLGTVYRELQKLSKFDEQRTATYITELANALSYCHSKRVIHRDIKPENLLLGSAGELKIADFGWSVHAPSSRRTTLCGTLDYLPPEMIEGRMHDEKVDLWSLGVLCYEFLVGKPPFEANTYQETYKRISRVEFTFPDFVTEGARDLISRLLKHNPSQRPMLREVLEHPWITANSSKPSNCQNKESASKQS
Description: Aurora A enzyme inhibition (time-resolved fluorescence, STK substrate-2). The assay is classed as biochemical. Particulars: 1 mM ATP. The gist of the method:
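Phosphorylation of biotinylated STK substrate-2 at 1 mM ATP, 1 h, Hepes buffer pH 7.4 (MgCl2, sodium orthovanadate, Triton X-100). After EDTA quench, 665/615 nm time-resolved fluorescence ratio read via europium anti-phospho antibody and SA-XL665; IC50 from exponential fit versus inhibitor concentration.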

KDR, sequence (P35968 20-1356): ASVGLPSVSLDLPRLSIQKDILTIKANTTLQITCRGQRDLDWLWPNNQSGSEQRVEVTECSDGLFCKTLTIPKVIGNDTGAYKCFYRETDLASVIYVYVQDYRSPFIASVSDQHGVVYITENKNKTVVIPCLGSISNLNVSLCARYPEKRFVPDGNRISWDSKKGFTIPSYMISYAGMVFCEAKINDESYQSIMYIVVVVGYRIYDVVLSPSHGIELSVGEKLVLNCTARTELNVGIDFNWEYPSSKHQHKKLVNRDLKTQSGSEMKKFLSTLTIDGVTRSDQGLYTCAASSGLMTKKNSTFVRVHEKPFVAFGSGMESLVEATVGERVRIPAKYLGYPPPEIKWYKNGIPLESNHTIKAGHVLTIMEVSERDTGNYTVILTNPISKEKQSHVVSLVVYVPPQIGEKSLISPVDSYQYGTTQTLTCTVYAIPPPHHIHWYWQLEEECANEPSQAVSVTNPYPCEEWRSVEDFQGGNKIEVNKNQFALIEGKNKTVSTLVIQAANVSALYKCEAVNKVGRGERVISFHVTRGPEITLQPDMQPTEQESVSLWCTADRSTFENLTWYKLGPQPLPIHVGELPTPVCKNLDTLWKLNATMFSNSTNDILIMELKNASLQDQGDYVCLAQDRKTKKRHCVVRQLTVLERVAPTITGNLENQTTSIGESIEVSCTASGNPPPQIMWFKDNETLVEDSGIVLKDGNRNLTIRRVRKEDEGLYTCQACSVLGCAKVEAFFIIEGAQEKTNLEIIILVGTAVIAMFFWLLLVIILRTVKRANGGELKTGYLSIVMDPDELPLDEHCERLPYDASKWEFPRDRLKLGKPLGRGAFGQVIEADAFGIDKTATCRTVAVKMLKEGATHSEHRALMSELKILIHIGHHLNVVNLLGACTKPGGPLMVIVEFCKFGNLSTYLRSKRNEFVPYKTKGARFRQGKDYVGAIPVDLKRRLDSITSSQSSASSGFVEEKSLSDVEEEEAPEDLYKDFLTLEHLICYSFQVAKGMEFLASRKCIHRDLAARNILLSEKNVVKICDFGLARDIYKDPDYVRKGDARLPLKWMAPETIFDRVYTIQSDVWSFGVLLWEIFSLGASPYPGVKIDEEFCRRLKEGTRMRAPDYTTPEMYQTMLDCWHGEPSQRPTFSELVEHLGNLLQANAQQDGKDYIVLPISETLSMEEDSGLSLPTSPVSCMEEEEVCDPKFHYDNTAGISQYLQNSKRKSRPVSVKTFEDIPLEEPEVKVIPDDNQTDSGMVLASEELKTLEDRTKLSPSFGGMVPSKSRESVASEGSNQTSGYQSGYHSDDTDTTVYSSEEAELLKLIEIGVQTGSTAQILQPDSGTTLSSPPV
T1 sequence (Q96GD4 whole entry, the tested form may be a part): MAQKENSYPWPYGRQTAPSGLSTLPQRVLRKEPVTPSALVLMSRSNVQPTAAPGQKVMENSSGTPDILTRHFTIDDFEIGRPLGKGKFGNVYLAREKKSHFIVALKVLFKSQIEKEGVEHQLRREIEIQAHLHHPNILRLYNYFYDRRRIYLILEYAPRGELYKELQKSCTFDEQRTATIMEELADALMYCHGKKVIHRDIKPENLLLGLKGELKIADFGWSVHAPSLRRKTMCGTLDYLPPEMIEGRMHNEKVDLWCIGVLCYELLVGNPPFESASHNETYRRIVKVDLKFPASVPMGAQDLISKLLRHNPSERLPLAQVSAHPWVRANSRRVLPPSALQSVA
T1 sequence (Q9NQS7 826-918 partner limits assumed): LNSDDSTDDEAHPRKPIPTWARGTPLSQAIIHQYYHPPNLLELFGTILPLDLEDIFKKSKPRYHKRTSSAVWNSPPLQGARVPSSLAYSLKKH

On to `NC(=O)[C@@H]1[C@H](Nc2nc(Nc3cnn(Cc4ccccc4Cl)c3)ncc2Br)[C@H]2C=C[C@@H]1C2` [Example 171, (1S,2S,3R,4R)-3-[(5-bromo-2-{[1-(2-chlorobenzyl)-1H-pyrazol-4-yl]amino}pyrimidin-4-yl)amino]bicyclo[2.2.1]hept-5-ene-2-carboxamide], for which the half-inhibitory concentration (IC50) at KDR is below 100 nM. Also, the inhibition constant (Ki) at Aurora B and at Aurora A was below 100 nM each time.
Consider `NC(=O)[C@@H]1[C@H](Nc2nc(Nc3cnn(Cc4ccccc4)c3)ncc2Cl)[C@H]2C=C[C@@H]1C2` [Example 144, (1S,2S,3R,4R)-3-({2-[(1-benzyl-1H-pyrazol-4-yl)amino]-5-chloropyrimidin-4-yl}amino)bicyclo[2.2.1]hept-5-ene-2-carboxamide], for which the half-maximal inhibitory concentration (IC50) at KDR is below 100 nM. The inhibition constant Ki on Aurora B and at Aurora A was below 100 nM each time.
As for `COCCn1cc(Nc2ncc(Br)c(N[C@H]3[C@@H](C(N)=O)[C@@H]4C=C[C@H]3C4)n2)cn1` [Example 106, (1S,2S,3R,4R)-3-[(5-bromo-2-{[1-(2-methoxyethyl)-1H-pyrazol-4-yl]amino}pyrimidin-4-yl)amino]bicyclo[2.2.1]hept-5-ene-2-carboxamide], the half-inhibitory concentration (IC50) on KDR is below 100 nM. The inhibition constant (Ki) at Aurora B and at Aurora A was below 100 nM in each case.
As to `COc1cccc(Cn2cc(Nc3ncc(Cl)c(N[C@H]4[C@@H](C(N)=O)[C@@H]5C=C[C@H]4C5)n3)cn2)c1` [Example 155, (1S,2S,3R,4R)-3-[(5-chloro-2-{[1-(3-methoxybenzyl)-1H-pyrazol-4-yl]amino}pyrimidin-4-yl)amino]bicyclo[2.2.1]hept-5-ene-2-carboxamide], the IC50 on KDR is below 100 nM. Also, the Ki on Aurora B and at Aurora A was below 100 nM in each case.
Turning to `C[C@@H](O)Cn1cc(Nc2ncc(Cl)c(N[C@@H]3[C@H]4CC[C@H](C4)[C@@H]3C(N)=O)n2)cn1` [Example 104, (1R,2S,3R,4S)-3-{[5-chloro-2-({1-[(2R)-2-hydroxypropyl]-1H-pyrazol-4-yl}amino)pyrimidin-4-yl]amino}bicyclo[2.2.1]heptane-2-carboxamide], the IC50 at KDR lay in the range of 100 to 1000 nM. Further, the inhibition constant Ki at Aurora B and at Aurora A was below 100 nM each time.
With `COc1ccc(Cn2cc(Nc3ncc(Cl)c(N[C@H]4[C@@H](C(N)=O)[C@@H]5C=C[C@H]4C5)n3)cn2)cc1F` [Example 192, (1S,2S,3R,4R)-3-[(5-chloro-2-{[1-(3-fluoro-4-methoxybenzyl)-1H-pyrazol-4-yl]amino}pyrimidin-4-yl)amino]bicyclo[2.2.1]hept-5-ene-2-carboxamide], the IC50 on KDR is below 100 nM. Further, the Ki at Aurora B and on Aurora A was below 100 nM each time.
With `CS(=O)(=O)CCn1cc(Nc2ncc(Cl)c(N[C@H]3[C@@H](C(N)=O)[C@@H]4C=C[C@H]3C4)n2)cn1` [Example 119, (1S,2S,3R,4R)-3-{[5-chloro-2-({1-[2-(methylsulfonyl)ethyl]-1H-pyrazol-4-yl}amino)pyrimidin-4-yl]amino}bicyclo[2.2.1]hept-5-ene-2-carboxamide], the IC50 on KDR was in the range of 100 to 1000 nM. For the same molecule, the Ki on Aurora B and on Aurora A was below 100 nM each time.
Take `COCCOCCn1cc(Nc2ncc(Cl)c(N[C@H]3[C@@H](C(N)=O)[C@@H]4C=C[C@H]3C4)n2)cn1` [Example 100, (1S,2S,3R,4R)-3-{[5-chloro-2-({1-[2-(2-methoxyethoxy)ethyl]-1H-pyrazol-4-yl}amino)pyrimidin-4-yl]amino}bicyclo[2.2.1]hept-5-ene-2-carboxamide]: the 50% inhibitory concentration (IC50) on KDR is below 100 nM. The Ki on Aurora B and on Aurora A was below 100 nM throughout.
For `Cn1cc(Nc2ncc(C(F)(F)F)c(N[C@@H]3[C@@H]4CC[C@@H](C4)[C@@H]3C(N)=O)n2)cn1.Cn1cc(Nc2ncc(C(F)(F)F)c(N[C@H]3[C@H]4CC[C@H](C4)[C@H]3C(N)=O)n2)cn1` (mixture of isomers) [Example 20, (1S,2S,3R,4R)-3-{[2-[(1-methyl-1H-pyrazol-4-yl)amino]-5-(trifluoromethyl)pyrimidin-4-yl]amino}bicyclo[2.2.1]heptane-2-carboxamide and (1R,2R,3S,4S)-3-{[2-[(1-methyl-1H-pyrazol-4-yl)amino]-5-(trifluoromethyl)pyrimidin-4-yl]amino}bicyclo[2.2.1]heptane-2-carboxamide], the half-inhibitory concentration (IC50) at KDR was below 100 nM. Besides, the Ki on Aurora B and at Aurora A was below 100 nM each time.
On to `Cc1c(Nc2ncc(Cl)c(N[C@H]3[C@@H](C(N)=O)[C@@H]4C=C[C@H]3C4)n2)cnn1C` [Example 169, (1S,2S,3R,4R)-3-({5-chloro-2-[(1,5-dimethyl-1H-pyrazol-4-yl)amino]pyrimidin-4-yl}amino)bicyclo[2.2.1]hept-5-ene-2-carboxamide], for which the 50% inhibitory concentration (IC50) at KDR was below 100 nM. Also, the Ki on Aurora B and on Aurora A was below 100 nM each time.
Consider `CCn1cc(Nc2ncc(Cl)c(N[C@@H]3[C@H](C(N)=O)[C@@H]4C=C[C@H]3C4)n2)cn1.CCn1cc(Nc2ncc(Cl)c(N[C@H]3[C@@H](C(N)=O)[C@H]4C=C[C@@H]3C4)n2)cn1` (mixture of isomers) [Example 121, (1S,2R,3S,4R)-3-({5-chloro-2-[(1-ethyl-1H-pyrazol-4-yl)amino]pyrimidin-4-yl}amino)bicyclo[2.2.1]hept-5-ene-2-carboxamide and (1R,2S,3R,4S)-3-({5-chloro-2-[(1-ethyl-1H-pyrazol-4-yl)amino]pyrimidin-4-yl}amino)bicyclo[2.2.1]hept-5-ene-2-carboxamide], for which, at KDR, the 50% inhibitory concentration (IC50) lay in the range of 100 to 1000 nM. In addition, the Ki on Aurora B and on Aurora A was below 100 nM each time.
Consider `CC(C)n1cc(Nc2ncc(Br)c(N[C@H]3[C@@H](C(N)=O)[C@@H]4C=C[C@H]3C4)n2)cn1` [Example 112, (1S,2S,3R,4R)-3-({5-bromo-2-[(1-isopropyl-1H-pyrazol-4-yl)amino]pyrimidin-4-yl}amino)bicyclo[2.2.1]hept-5-ene-2-carboxamide], for which, at KDR, the 50% inhibitory concentration (IC50) is below 100 nM. Besides, the inhibitory constant (Ki) on Aurora B and at Aurora A was below 100 nM each time.
Take `COCCOCCn1cc(Nc2ncc(Br)c(N[C@H]3[C@@H](C(N)=O)[C@@H]4C=C[C@H]3C4)n2)cn1` [Example 110, (1S,2S,3R,4R)-3-{[5-bromo-2-({1-[2-(2-methoxyethoxy)ethyl]-1H-pyrazol-4-yl}amino)pyrimidin-4-yl]amino}bicyclo[2.2.1]hept-5-ene-2-carboxamide]: the IC50 at KDR is below 100 nM. Besides, the Ki on Aurora B and at Aurora A was below 100 nM in each case.
Regarding `CC(C)CCn1cc(Nc2ncc(Br)c(N[C@H]3[C@@H](C(N)=O)[C@@H]4C=C[C@H]3C4)n2)cn1` [Example 111, (1S,2S,3R,4R)-3-[(5-bromo-2-{[1-(3-methylbutyl)-1H-pyrazol-4-yl]amino}pyrimidin-4-yl)amino]bicyclo[2.2.1]hept-5-ene-2-carboxamide], the IC50 at KDR was below 100 nM. Besides, the inhibition constant (Ki) on Aurora B and at Aurora A was below 100 nM each time.
For the molecule `CN(C)CC(=O)N1CCC(n2cc(Nc3ncc(Cl)c(N[C@H]4[C@@H](C(N)=O)[C@@H]5C=C[C@H]4C5)n3)cn2)CC1` [Example 89, (1S,2S,3R,4R)-3-{[5-chloro-2-({1-[1-(N,N-dimethylglycyl)piperidin-4-yl]-1H-pyrazol-4-yl}amino)pyrimidin-4-yl]amino}bicyclo[2.2.1]hept-5-ene-2-carboxamide], the IC50 on KDR is below 100 nM. Besides, the Ki at Aurora B and at Aurora A was below 100 nM in each case.
As to `Cn1cc(Nc2ncc(C(F)(F)F)c(N[C@@H]3[C@H](C(N)=O)[C@H]4C=C[C@@H]3C4)n2)cn1.Cn1cc(Nc2ncc(C(F)(F)F)c(N[C@H]3[C@@H](C(N)=O)[C@@H]4C=C[C@H]3C4)n2)cn1` (mixture of isomers) [Example 10, (1S,2S,3R,4R)-3-{[2-[(1-methyl-1H-pyrazol-4-yl)amino]-5-(trifluoromethyl)pyrimidin-4-yl]amino}bicyclo[2.2.1]hept-5-ene-2-carboxamide and (1R,2R,3S,4S)-3-{[2-[(1-methyl-1H-pyrazol-4-yl)amino]-5-(trifluoromethyl)pyrimidin-4-yl]amino}bicyclo[2.2.1]hept-5-ene-2-carboxamide], the half-inhibitory concentration (IC50) at KDR is below 100 nM. The Ki at Aurora B and at Aurora A was below 100 nM throughout.

Values taken from US8426408B2, “Pyrimidine inhibitors of kinases” (AbbVie Inc., priority 2009, dated 2013).
